Patent publication US8952024B2, “Herbicidal pyrimidone derivatives” (E I du Pont de Nemours and Company, priority 2009, dated 2015)

Key:
Format in all cases: in vivo
[1] = test system: winter barley (Hordeum vulgare); test: Test B postemergence plant response; conditions: for Plant response rating, Barley: Postemergence
How it was run: (§1)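 Plants grown in peat/vermiculite medium were sprayed postemergence at 2–18 cm height (1- to 4-leaf stage). After 13–15 days in the greenhouse, response was rated visually against untreated controls on a 0–100 scale (0 no effect, 100 complete control).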

[2] = test system: canarygrass (Phalaris minor); test: Test B postemergence plant response; conditions: for Plant response rating, Canarygrass: Postemergence
How it was run: as §1

[3] = test system: chickweed (Stellaria media); test: Test B postemergence plant response; conditions: for Plant response rating, Chickweed: Postemergence
How it was run: as §1

[4] = test system: windgrass (Apera spica-venti); test: Test B postemergence plant response; conditions: for Plant response rating, Windgrass: Postemergence
How it was run: as §1

[5] = test system: bermudagrass (Cynodon dactylon); test: Test B pre-/postemergence plant response; conditions: for Plant response rating, Bermudagrass: Postemergence
How it was run: (§2)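 Steps: sow seed in loam–sand soil and spray preemergence, or grow plants in peat-based medium to 1–4 leaves (2–18 cm) and spray postemergence; formulation is non-phytotoxic solvent plus surfactant; hold in greenhouse 13–15 days; score visually vs controls, 0 = no effect, 100 = complete control.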

wild oat (Avena fatua) = test: Test B pre-/postemergence plant response; conditions: for Plant response rating, Oat, Wild: Postemergence
How it was run: as §2

[6] = test system: ragweed (common ragweed, Ambrosia elatior); test: Test B pre-/postemergence plant response; conditions: for Plant response rating, Ragweed: Postemergence
How it was run: as §2

[7] = test system: large crabgrass (Digitaria sanguinalis); test: Test B pre-/postemergence plant response; conditions: for Plant response rating, Crabgrass, Large: Postemergence
How it was run: as §2

soybean (Glycine max) = test: Test B pre-/postemergence plant response; conditions: for Plant response rating, Soybean: Postemergence
How it was run: as §2

[8] = test system: johnsongrass (Sorghum halepense); test: Test B pre-/postemergence plant response; conditions: for Plant response rating, Johnsongrass: Postemergence
How it was run: as §2

[9] = test system: velvetleaf (Abutilon theophrasti); test: Test B pre-/postemergence plant response; conditions: for Plant response rating, Velvetleaf: Postemergence
How it was run: as §2

corn (Zea mays) = test: Test B pre-/postemergence plant response; conditions: for Plant response rating, Corn: Postemergence
How it was run: as §2

[10] = test system: woolly cupgrass (Eriochloa villosa); test: Test B pre-/postemergence plant response; conditions: for Plant response rating, Cupgrass, Woolly: Postemergence
How it was run: as §2

[11] = test system: Surinam grass (Brachiaria decumbens); test: Test B pre-/postemergence plant response; conditions: for Plant response rating, Surinam Grass: Postemergence
How it was run: as §2

[12] = test system: Italian ryegrass (Lolium multiflorum); test: Test B pre-/postemergence plant response; conditions: for Plant response rating, Ryegrass, Italian: Postemergence
How it was run: as §2

[13] = test system: lambsquarters (Chenopodium album); test: Test B pre-/postemergence plant response; conditions: for Plant response rating, Lambsquarters: Postemergence
How it was run: as §2

[14] = test system: blackgrass (Alopecurus myosuroides); test: Test B pre-/postemergence plant response; conditions: for Plant response rating, Blackgrass: Postemergence
How it was run: as §2

[15] = test system: yellow nutsedge (Cyperus esculentus); test: Test B pre-/postemergence plant response; conditions: for Plant response rating, Nutsedge, Yellow: Postemergence
How it was run: as §2

[16] = 62 g ai/ha, postemergence, 0 is no effect, 100 is complete control, 13 to 15 days
[17] = 31 g ai/ha, 0 to 100 scale (0 no effect, 100 complete control)
[18] = 125 g ai/ha, scale 0 to 100 (0 no effect, 100 complete control)
[19] = 250 g ai/ha, scale 0 to 100 (0 no effect, 100 complete control)

SMILES: COCCCn1c(-c2cccc(F)c2)ncc(C(=O)C2=C(O)CCCC2=O)c1=O [Compound 126]
- Barley plant response rating (0 to 100 scale) [1, 16]: 5
- Plant response rating, Barley [1, 17]: 5
- Plant response rating, Barley [1, 18]: 15
- Plant response rating, Barley [1, 19]: 40
- Canarygrass plant response rating (0 to 100 scale) [2, 16]: 40
- Plant response rating, Canarygrass [2, 17]: 15
- Plant response rating, Canarygrass [2, 18]: 60
- Plant response rating, Canarygrass [2, 19]: 90
- Chickweed plant response rating (0 to 100 scale) [3, 16]: 80
- Plant response rating, Chickweed [3, 17]: 65
- Plant response rating, Chickweed [3, 18]: 98
- Plant response rating, Chickweed [3, 19]: 98
- Windgrass plant response rating (0 to 100 scale) [4, 16]: 10
- Plant response rating, Windgrass [4, 17]: 10
- Plant response rating, Windgrass [4, 18]: 40
- Bermudagrass plant response rating (0 to 100 scale) [5, 16]: 85
- Plant response rating, Bermudagrass [5, 17]: 75
- Plant response rating, Bermudagrass [5, 18]: 90
- Plant response rating, Bermudagrass [5, 19]: 95
- Oat, Wild plant response rating (0 to 100 scale) (wild oat (Avena fatua); [16]): 10
- Plant response rating, Oat, Wild (wild oat (Avena fatua); [17]): 5
- Plant response rating, Oat, Wild (wild oat (Avena fatua); [18]): 35
- Plant response rating, Oat, Wild (wild oat (Avena fatua); [19]): 50
- Ragweed plant response rating (0 to 100 scale) [6, 16]: 75
- Plant response rating, Ragweed [6, 17]: 55
- Plant response rating, Ragweed [6, 18]: 85
- Plant response rating, Ragweed [6, 19]: 90
- Crabgrass, Large plant response rating (0 to 100 scale) [7, 16]: 80
- Plant response rating, Crabgrass, Large [7, 17]: 75
- Plant response rating, Crabgrass, Large [7, 18]: 85
- Plant response rating, Crabgrass, Large [7, 19]: 90
- Soybean plant response rating (0 to 100 scale) (soybean (Glycine max); [16]): 75
- Plant response rating, Soybean (soybean (Glycine max); [17]): 70
- Plant response rating, Soybean (soybean (Glycine max); [18]): 85
- Plant response rating, Soybean (soybean (Glycine max); [19]): 98
- Johnsongrass plant response rating (0 to 100 scale) [8, 16]: 65
- Plant response rating, Johnsongrass [8, 17]: 65
- Plant response rating, Johnsongrass [8, 18]: 85
- Plant response rating, Johnsongrass [8, 19]: 90
- Velvetleaf plant response rating (0 to 100 scale) [9, 16]: 90
- Plant response rating, Velvetleaf [9, 17]: 80
- Plant response rating, Velvetleaf [9, 18]: 95
- Plant response rating, Velvetleaf [9, 19]: 98
- Corn plant response rating (0 to 100 scale) (corn (Zea mays); [16]): 30
- Plant response rating, Corn (corn (Zea mays); [17]): 10
- Plant response rating, Corn (corn (Zea mays); [18]): 55
- Plant response rating, Corn (corn (Zea mays); [19]): 80
- Cupgrass, Woolly plant response rating (0 to 100 scale) [10, 16]: 75
- Plant response rating, Cupgrass, Woolly [10, 17]: 65
- Plant response rating, Cupgrass, Woolly [10, 18]: 85
- Plant response rating, Cupgrass, Woolly [10, 19]: 90
- Surinam Grass plant response rating (0 to 100 scale) [11, 16]: 80
- Plant response rating, Surinam Grass [11, 17]: 70
- Plant response rating, Surinam Grass [11, 18]: 85
- Plant response rating, Surinam Grass [11, 19]: 98
- Ryegrass, Italian plant response rating (0 to 100 scale) [12, 16]: 5
- Plant response rating, Ryegrass, Italian [12, 17]: 0
- Plant response rating, Ryegrass, Italian [12, 18]: 5
- Plant response rating, Ryegrass, Italian [12, 19]: 50
- Lambsquarters plant response rating (0 to 100 scale) [13, 16]: 85
- Plant response rating, Lambsquarters [13, 17]: 70
- Plant response rating, Lambsquarters [13, 18]: 85
- Plant response rating, Lambsquarters [13, 19]: 98
- Blackgrass plant response rating (0 to 100 scale) [14, 16]: 25
- Plant response rating, Blackgrass [14, 17]: 5
- Plant response rating, Blackgrass [14, 18]: 30
- Plant response rating, Blackgrass [14, 19]: 45
- Nutsedge, Yellow plant response rating (0 to 100 scale) [15, 16]: 75
- Plant response rating, Nutsedge, Yellow [15, 17]: 65
- Plant response rating, Nutsedge, Yellow [15, 18]: 80
- Plant response rating, Nutsedge, Yellow [15, 19]: 80
